Measurements from patent US20050170391A1, “TAUT1 transporters expressed in blood brain barrier cells” (Xenoport, Inc., priority 2004, published 2005).

Target: T1, TAUT1 (Homo sapiens, UniProt P31641)
T1 sequence (P31641 1-620): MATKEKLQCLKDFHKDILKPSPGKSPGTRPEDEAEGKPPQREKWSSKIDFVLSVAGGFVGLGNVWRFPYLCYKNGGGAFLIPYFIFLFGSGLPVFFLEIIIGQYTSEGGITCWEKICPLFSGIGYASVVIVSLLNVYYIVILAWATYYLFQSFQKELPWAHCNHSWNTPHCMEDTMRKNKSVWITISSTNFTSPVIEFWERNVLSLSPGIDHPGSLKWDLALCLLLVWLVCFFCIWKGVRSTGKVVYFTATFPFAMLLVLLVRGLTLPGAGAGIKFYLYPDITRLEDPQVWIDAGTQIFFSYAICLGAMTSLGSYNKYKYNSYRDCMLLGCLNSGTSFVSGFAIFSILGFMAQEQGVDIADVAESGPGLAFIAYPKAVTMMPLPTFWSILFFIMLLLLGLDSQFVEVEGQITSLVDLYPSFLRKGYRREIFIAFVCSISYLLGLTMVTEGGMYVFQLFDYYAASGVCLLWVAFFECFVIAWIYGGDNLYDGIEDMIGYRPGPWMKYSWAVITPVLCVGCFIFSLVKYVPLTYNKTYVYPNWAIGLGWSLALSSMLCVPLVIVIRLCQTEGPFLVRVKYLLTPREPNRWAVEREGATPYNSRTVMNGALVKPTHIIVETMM
Test: hTAUT1 direct uptake assay in HEK-TREx-TAUT1 cells (LC-MS-MS)
Type: cell-based
Design: expressed in transfected cells; host or cells: HEK-TREx cells (HEK-TREx-TAUT1 inducible line)
Conditions: direct uptake into HEK-TREx-TAUT1 cells, +TET minus no TET; 15 min, room temperature
Experimental: A modified direct uptake assay was developed to determine the ability of test compounds to be transported into HEK-TREx cells induced to over-express hTAUT. Four concentrations (bracketing the affinity as measured by competition assays) per compound were routinely tested. Non-specific uptake was determined by measuring the uptake into cells not induced to express the transporter (“no tet”).
Typically, four concentrations bracketing the IC50 were tested. The highest test concentration for each compound was made in an eppendorf tube and diluted into HBSS. The samples were robustly vortexed and centrifuged for 10 minutes at 13,200 rpm to spin down any precipitate. […] Three additional 2-fold dilutions were made in the subsequent rows (B-D or […]) in HBSS.
An internal standard of 50 μM propranolol in 50:50 ethanol:water was also prepared. To prepare standard curves, several concentrations of the test compounds were diluted into HEK cell extract (prepared from tet-treated, mock-incubated and extracted cells as described below) with a final internal standard concentration of 5 μM. Standards of 10, 5, 1, 0.5, 0.1, 0.05, 0.01 and 0.005 μM were routinely run for each test compound.
HEK-TREx-hTAUT cells were plated in 96-well plates and treated with plus (columns 1-3 and 7-9) or without tetracycline (or a tetracycline analog; columns 4-6 and 10-12). The cells were removed from the incubator, and the growth media was removed from the cells. The cells were washed twice in room temperature HBSS (100 μl/well/wash) using a 96-well plate washer (Bio Tek ELX405). Alternatively, cells were washed manually with equivalent volumes using a multichannel pipettor. Immediately before the assay was begun, the final 100 μl wash solution was removed from the cells. The assay was started by using a 96-well pipettor to add 50 μl from the “compound” plate to each well of the HEK-TREx-hTAUT cell plate. The plate was incubated at room temperature for 15 minutes.
After the final wash, as much of the wash buffer as possible was removed by aspirating the wells with a probe that reached the bottom of the wells. (Residual salts from the wash buffer can adversely affect the LC-MS-MS by disrupting the LC method or by suppressing the MS signal.) 150 μl of a 50:50 ethanol:water solution was added to each well to lyse the cells and extract the test compound. The plate was covered and allowed to sit for 20 minutes at room temperature to ensure cell lysis. (The 50% ethanol solution is the generic solution for extraction. For compounds soluble in water or other solvents compatible with the LC-MS-MS, such solutions can be tried to determine they interfere with the LC-MS-MS analysis. If the organic solvent concentration is too high (>50%), it may be detrimental to the LC run).
120 μl of the cell extract was removed from each well and transferred to a fresh 96-well v-bottom polypropylene plate. This plate was covered with an adherent cover (top seal) and centrifuged for 15 minutes at 5,700 rpm (Allegra 25R centrifuge) at 4° C. to pellet any cell precipitate. 10 μl of the 50 μM propranolol solution was added to each well of a fresh 96-well plate (a plate amenable for sampling in the LC-MS-MS). 90 μl of the supernatant from the centrifuged cell extract was removed and transferred to the plate containing the 10 μl of propranolol (using the Cybi-well 96-well pipettor). The sample plate with a bubble lid suitable for use with the LC-MS-MS and placed on a plate shaker for 5 to 10 minutes to mix the sample and the propranolol. The samples were submitted for LC-MS-MS analysis. The levels of intracellular compounds were determined by converting the peak area to concentration by extrapolating from the standard curve for each compound. Uptake was expressed as μM/well.
While the uptake values in these experiments were expressed as “μM/well”, the values can be easily converted to “pmol/well” or “pmol/well/unit time”. All of the samples were extracted with 150 μl of extraction buffer.

Row | Structure (SMILES) | Vmax | Km | pKm
1 | NCCCC(=O)O [GABA, γ-aminobutyric acid] | 12 μM/well | – | –
2 | N=C(N)NCCC(=O)O [GPA] | 6.4 μM/well | 120 µM | 4.0
3 | O=C(O)Cc1c[nH]cn1 [IAA, 4-imidazole acetic acid] | 6.1 μM/well | – | –
4 | NCC(CC(=O)O)c1ccc(Cl)cc1 (centres unmarked) [R,S-Baclofen] | 5.4 μM/well | 1700 µM | 2.9
